In patent US20230203482A1, “Methods of Rescuing Stop Codons via Genetic Reassignment with ACE-tRNA” (THE WISTAR INSTITUTE OF ANATOMY AND BIOLOGY, priority 2017, published 2023):

B1: Glychr19.trna2: top performing glycine ACE-tRNA UGA suppressor, SEQ ID NO: 53 (nucleic acid)
chain: GCGTTGGTGGTATAGTGGTTAGCATAGCTGCCTTCAAAGCAGTTGACCCGGGTTCGATTCCCGGCCAACGCA
modifications: chemistry not fully specified

Tested on: NLuc-UGA PTC
Experiment: NanoLuc nonsense reporter screen (all-in-one HTC plasmid), TGA/UGA PTC, HEK293 cells
Assay type: cell-based, human
Settings: for stop codon selectivity (NanoLuc TGA, TAA or TAG reporter): transiently transfected HEK293 cells
Description: Several different nonsense mutations cause CF, thus underlying roughly 10% of all CF disease. FIG. 7. These cases are concentrated into […] specific genetic lesions: E60X, R75X, G542X, R553X, Q890X, Y1092X, R1158X, R1162X and W1282X. A screen was developed to screen existing human tRNA sequences for modification and tolerance to anti-codon editing. To this end, roughly 144 ACE-tRNAs were candidates to test for those that could be used to promote the repair of the disease causative nonsense codon and the expression of the full-length protein. Specifically, using the scheme described in FIG. 11, tRNA libraries were generated to identify novel tRNA sequences that encode for ACE tRNA with the ability to repair the top CF causative nonsense mutations. Specifically, 10 ng of annealed oligos encoding the ACE-tRNAs were combined with 50 ng of NanoLuc reporter plasmid, 1 μl 10×CutSmart Buffer (NEB), 1 μl T4 ligase (NEB), 10 mM ATP and 1 μl BbsI (NEB) and cycled in a thermocycler as described in FIG. 11. 1 μl of the reaction was transformed into competent E. coli and the transformants were plated on ampicillin agar plates. One transformant was picked per plate was picked, grown in 1 ml of LB under ampicillin selection, miniprepped and sequence verified.
Screening studies were first performed to identify the best ACE-tRNA Candidates from tryptophan and glycine. 125 ng of sequence verified miniprep cDNA of NanoLuc reporter plasmid with ACE-tRNA was transfected into HEK cells using calcium phosphate. HEK cells were plated in 96 well plates at 4×10^4 the day prior. 24 hours after transfection the media was replaced with 20 μl of PBS and 15 μl of NanoGlo reagent (Promega) was added. Plates were read on a SpectraMax i3 (Molecular Devices). Data are of replicates of 3 or greater. FIG. 8.
FIG. 10. An additional modification of the tRNA was made to further enable their function for the purpose of suppression of nonsense codons and the promotion of protein expression. […] To this end, single and double mutations were directly engineered into the t-stem loop of tRNA Trpchr17.trna39—an ACE-tRNA identified with activity for the rescue of tryptophan TGA nonsense codons. Thirty-eight tRNA t-stem variants were thus generated and screened in HEK cells transiently transfected with the nonsense rescue reporter construct shown in FIG. 4. […] This is a generalizable modification, that is, new tRNA sequences identified, by example 1 and 2, can be made better (for their ability to rescue nonsense codons) through further rationale modifications. Such approaches aid in the therapeutic utility of ACE-tRNA directed to tissue types with low abundance target RNA or where tRNA delivery may be limiting.
In order to enable the identification of the nucleotide composition and functional ability to suppress nonsense codons by new types of tRNA, an All-In-One Plasmid With A One Pot Cloning Reaction was invented for High Throughput Cloning FIG. 11. This approach enables the facile investigation of ACE-tRNA activity via luciferase activity in a standard 96 well format. Briefly, synthetic nucleotide sequences encoding for tRNA are ligated into the NanoLuc Reporter plasmid, with an example of the TGA nonsense reporter plasmid variant shown in FIG. 11. […] and TAG (amber) stop codon rescue vectors have been successfully designed and implemented in FIGS. 16-19. The benefits are the approach is that DNA oligos encoding for tRNA libraries can be ligated in the NanoLuc reporter plasmid with the presence of the restriction enzyme and ligase with the reaction pushed to nearly 100% incorporation of tRNA insert (FIG. 11)-thus the ‘one-pot’ designation. The reaction is transformed into E. coli, with the resultant cDNA purified by standard methods. […]

Molecule | Ranking (Table 7, Trp TGA) | stop codon selectivity (NanoLuc TGA, TAA or TAG reporter) (listed as ACE-tRNA^Trp) | Ranking (Table 8, Gly TGA) | stop codon selectivity (NanoLuc TGA, TAA or TAG reporter) (listed as Glychr19.t2)
Trpchr17.trna39: top performing tryptophan ACE-tRNA UGA suppressor, SEQ ID NO: 48 | #1 | Stop codon specificity is maintained |  | 
B1 |  |  | #1 | selectively suppresses the UGA stop codon
